One assay concerns DOHH2 cells. Briefly: CellTiter-Glo cell proliferation assay, DOHH2 cells. Type of assay: cell-based. Conditions: Homo sapiens, DOHH-2, 72 hours. The method, then:
The CellTiter-Glo® Luminescent Cell Viability Assay (Promega, G7573) was used to study the cellular potency of disclosed compounds herein. The cells were harvested during the logarithmic growth period and counted with hemocytometer. The DOHH2 cells were seeded at 1.6*10^4 in 90 ul DMEM medium supplemented with 10% fetal bovine serum (FBS) (as RS4;11 cells were seeded at 4000 in 90 ul RPMI-1640 medium with 10% FBS) per well in 96-well plates and treated with 10 ul of a serial dilution of compounds disclosed herein (maximum concentration and dilution ratio determined by the results of pre-experiment may vary) for 72 hours in a 5% CO2 incubator at 37° C. Cell viability was assessed according to the manufacturer's recommendations. After the plates return to the room temperature, 100 ul of CellTiter-Glo® reagent was added to 100 ul of cell culture. The mixture was agitated on an orbital shaker for 2 minutes or placed it at room temperature for 10 minutes to allow cell lysis and stabilization of luminescent signals. Luminescent signals were recorded using Envision 2104 instrument. And GI50 values were then calculated.

A further assay addresses T1, BCL-2 (Homo sapiens, UniProt P10415).
T1 construct: purchased Cisbio 63ADK000CB01PEG
Description: HTRF BCL-2/BAK assay (Cisbio). Type of assay: binding. To be noted: recombinant human Tag1-BCL-2 2 nM, Tag2-BAK 10 nM. Here is the method:
Then the pre-mixed anti-Tag1-Eu^3+ and anti-tag2-XL665 were added to the plate and further incubated at room temperature for another 2 hours. The signals ([…]) were read on Envision 2104 instrument. The IC50 for each compound was derived from fitting the signal of 665/615 nM to the increasing compound concentration.
Using the above assays, the following compounds were tested.
On the technique in general: Time-resolved FRET reads energy transfer from a long-lived donor to a nearby acceptor.

T1 sequence (P10415 whole entry): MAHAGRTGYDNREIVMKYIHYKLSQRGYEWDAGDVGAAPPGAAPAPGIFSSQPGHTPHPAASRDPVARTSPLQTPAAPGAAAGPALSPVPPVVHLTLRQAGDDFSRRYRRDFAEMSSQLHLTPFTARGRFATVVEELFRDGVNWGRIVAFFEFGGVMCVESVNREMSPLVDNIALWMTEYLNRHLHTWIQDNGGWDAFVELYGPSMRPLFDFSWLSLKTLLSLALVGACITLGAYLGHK

For orientation: GI50 means the concentration that inhibits growth by half. A higher GI50 goes with less potent growth inhibition. By IC50 is commonly meant the concentration that gives 50% inhibition. As for `O=C(NS(=O)(=O)c1ccc(NCC2CC3(CCN(S(=O)(=O)C4CC4)CC3)C2)c([N+](=O)[O-])c1)c1ccc(N2CCN([C@@H]3CCCCc4c(Cl)cccc43)CC2)cc1Oc1cnc2[nH]ccc2c1` [Compound 127, (R)-2-((1H-pyrrolo[2,3-b]pyridin-5-yl)oxy)-4-(4-(1-chloro-6,7,8,9-tetrahydro-5H-benzo[7]annulen-5-y1)piperazin-1-yl)-N-((4-(((7-(cyclopropylsulfonyl)-7-azaspiro[3.5]nonan-2-yl)methyl)amino)-3-nitrophenyl)sulfonyl)benzamide], the GI50 in the assay on DOHH2 cells was less than 50 nM. In addition, at BCL-2, the IC50 was less than 20 nM.
Turning to `O=C(NS(=O)(=O)c1ccc(NCC2CCOCC2)c([N+](=O)[O-])c1)c1ccc(N2CCN(C3CCCCc4ccccc43)CC2)cc1Oc1cnc2[nH]ccc2c1` (centres unmarked) [Compound 6, 2-((1H-pyrrolo[2,3-b]pyridin-5-yl)oxy)-N-((3-nitro-4-(((tetrahydro-2H-pyran-4-yl)methyl)amino)phenyl)sulfonyl)-4-(4-(6,7,8,9-tetrahydro-5H-benzo[7]annulen-5-yl)piperazin-1-yl)benzamide], the GI50 in the assay on DOHH2 cells lay within 50 to 500 nM. For the same molecule, the IC50 at BCL-2 was less than 20 nM.
As for `O=C(NS(=O)(=O)c1ccc(NCC2CCOCC2)c([N+](=O)[O-])c1)c1ccc(N2CC3(C2)CN(C2CCCc4ccccc42)C3)cc1Oc1cnc2[nH]ccc2c1` (centres unmarked) [Compound 96, 2-((1H-pyrrolo[2,3-b]pyridin-5-yl)oxy)-N-((3-nitro-4-(((tetrahydro-2H-pyran-4-yl)methyl)amino)phenyl)sulfonyl)-4-(6-(1,2,3,4-tetrahydronaphthalen-1-yl)-2,6-diazaspiro[3.3]heptan-2-yl)benzamide], the GI50 with DOHH2 cells was greater than 5000 nM. The IC50 at BCL-2 is 20 to 200 nM.
On the same counts, the results for `O=C(NS(=O)(=O)c1ccc(NCC2CCOCC2)c([N+](=O)[O-])c1)c1ccc(N2CCN(C3CCCCc4c(Cl)cccc43)CC2)cc1Oc1cnc2[nH]ccc2c1` (centres unmarked) [Compound 27, 2-((1H-pyrrolo[2,3-b]pyridin-5-yl)oxy)-4-(4-(1-chloro-6,7,8,9-tetrahydro-5H-benzo[7]annulen-5-yl)piperazin-1-yl)-N-((3-nitro-4-(((tetrahydro-2H-pyran-4-yl)methyl)amino)phenyl)sulfonyl)benzamide] are less than 50 nM and less than 20 nM.
As to `O=C(NS(=O)(=O)c1ccc(NCC2CC3(CCCCC3)C2)c([N+](=O)[O-])c1)c1ccc(N2CCN([C@@H]3CCCCc4c(Cl)cccc43)CC2)cc1Oc1cnc2[nH]ccc2c1` [Compound 132, (R)-2-((1H-pyrrolo[2,3-b]pyridin-5-yl)oxy)-4-(4-(1-chloro-6,7,8,9-tetrahydro-5H-benzo[7]annulen-5-yl)piperazin-1-yl)-N-((3-nitro-4-((spiro[3.5]nonan-2-ylmethyl)amino)phenyl)sulfonyl)benzamide], the GI50 in the assay on DOHH2 cells fell in the range of 50 to 500 nM. The IC50 at BCL-2 is less than 20 nM.
Molecule `O=C(NS(=O)(=O)c1ccc(NCC2CCOCC2)c([N+](=O)[O-])c1)c1ccc(N2CC3(C2)CN(C2CCCCc4ccccc42)C3)cc1Oc1cnc2[nH]ccc2c1` (centres unmarked) [Compound 95, 2-((1H-pyrrolo[2,3-b]pyridin-5-yl)oxy)-N-((3-nitro-4-(((tetrahydro-2H-pyran-4-yl)methyl)amino)phenyl)sulfonyl)-4-(6-(6,7,8,9-tetrahydro-5H-benzo[7]annulen-5-yl)-2,6-diazaspiro[3.3]heptan-2-yl)benzamide] had a GI50 in the assay on DOHH2 cells of 500 to 5000 nM. For the same molecule, the IC50 at BCL-2 lay within 20 to 200 nM.
On the same counts, the results for `O=C(NS(=O)(=O)c1ccc(NCC2CCOCC2)c([N+](=O)[O-])c1)c1ccc(N2CC3(CCN(C4CCCc5ccccc54)C3)C2)cc1Oc1cnc2[nH]ccc2c1` (centres unmarked) [Compound 91, 2-((1H-pyrrolo[2,3-b]pyridin-5-yl)oxy)-N-((3-nitro-4-(((tetrahydro-2H-pyran-4-yl)methyl)amino)phenyl)sulfonyl)-4-(6-(1,2,3,4-tetrahydronaphthalen-1-yl)-2,6-diazaspiro[3.4]octan-2-yl)benzamide] are 500 to 5000 nM and less than 20 nM.
In the case of `O=C(NS(=O)(=O)c1ccc(NCC2CCOCC2)c([N+](=O)[O-])c1)c1ccc(N2CCN(C3CCCc4ccccc43)CC2)cc1Oc1cnc2[nH]ccc2c1` (centres unmarked) [Compound 2, 2-((1H-pyrrolo[2,3-b]pyridin-5-yl)oxy)-N-((3-nitro-4-(((tetrahydro-2H-pyran-4-yl)methyl)amino)phenyl)sulfonyl)-4-(4-(1,2,3,4-tetrahydronaphthalen-1-yl)piperazin-1-yl)benzamide], the 50% growth inhibitory concentration (GI50) with DOHH2 cells is greater than 5000 nM. In addition, on BCL-2, the IC50 lay within 20 to 200 nM.
On the same counts, the results for `O=C(NS(=O)(=O)c1ccc(NCC2CC3CC2CN3)c([N+](=O)[O-])c1)c1ccc(N2CCN([C@@H]3CCCCc4c(Cl)cccc43)CC2)cc1Oc1cnc2[nH]ccc2c1` (stereo partly drawn) [Compound 105, 2-((1H-pyrrolo[2,3-b]pyridin-5-yl)oxy)-N-((4-(((2-azabicyclo[2.2.1]heptan-5-yl)methyl)amino)-3-nitrophenyl)sulfonyl)-4-(4-((R)-1-chloro-6,7,8,9-tetrahydro-5H-benzo[7]annulen-5-yl)piperazin-1-yl)benzamide] are 50 to 500 nM and less than 20 nM.
In the assay with DOHH2 cells, `O=C(NS(=O)(=O)c1ccc(NCC2CCOCC2)c([N+](=O)[O-])c1)c1ccc(N2CC3(CCN(C4CCCCc5ccccc54)CC3)C2)cc1Oc1cnc2[nH]ccc2c1` (centres unmarked) [Compound 97, 2-((1H-pyrrolo[2,3-b]pyridin-5-yl)oxy)-N-((3-nitro-4-(((tetrahydro-2H-pyran-4-yl)methyl)amino)phenyl)sulfonyl)-4-(7-(6,7,8,9-tetrahydro-5H-benzo[7]annulen-5-yl)-2,7-diazaspiro[3.5]nonan-2-yl)benzamide] had a GI50 of 500 to 5000 nM. Moreover, at BCL-2, the IC50 fell in the range of 20 to 200 nM.
In the case of `O=C(NS(=O)(=O)c1ccc(NCC2CCOCC2)c([N+](=O)[O-])c1)c1ccc(N2CCC3(CC2)CN(C2CCCCc4ccccc42)C3)cc1Oc1cnc2[nH]ccc2c1` (centres unmarked) [Compound 93, 2-((1H-pyrrolo[2,3-b]pyridin-5-yl)oxy)-N-((3-nitro-4-(((tetrahydro-2H-pyran-4-yl)methyl)amino)phenyl)sulfonyl)-4-(2-(6,7,8,9-tetrahydro-5H-benzo[7]annulen-5-yl)-2,7-diazaspiro[3.5]nonan-7-yl)benzamide], the GI50 in the assay on DOHH2 cells was 500 to 5000 nM. The IC50 on BCL-2 was in the range of 20 to 200 nM.
In turn, `O=C(NS(=O)(=O)c1ccc(NCC2CC3(CCC(F)(F)CC3)C2)c([N+](=O)[O-])c1)c1ccc(N2CCN([C@@H]3CCCCc4c(Cl)cccc43)CC2)cc1Oc1cnc2[nH]ccc2c1` [Compound 135, (R)-2-((1H-pyrrolo[2,3-b]pyridin-5-yl)oxy)-4-(4-(1-chloro-6,7,8,9-tetrahydro-5H-benzo[7]annulen-5-yl)piperazin-1-yl)-N-((4-(((7,7-difluorospiro[3.5]nonan-2-y1)methyl)amino)-3-nitrophenyl)sulfonyl)benzamide] showed a GI50 in the assay with DOHH2 cells of less than 50 nM. Moreover, the IC50 at BCL-2 is less than 20 nM.
Turning to `CC(C)S(=O)(=O)N1CCC2(CC1)CC(CNc1ccc(S(=O)(=O)NC(=O)c3ccc(N4CCN([C@@H]5CCCCc6c(Cl)cccc65)CC4)cc3Oc3cnc4[nH]ccc4c3)cc1[N+](=O)[O-])C2` [Compound 128, (R)-2-((1H-pyrrolo[2,3-b]pyridin-5-yl)oxy)-4-(4-(1-chloro-6,7,8,9-tetrahydro-5H-benzo[7]annulen-5-yl)piperazin-1-yl)-N-((4-(((7-(isopropylsulfony1)-7-azaspiro[3.5]nonan-2-yl)methyl)amino)-3-nitrophenyl)sulfony1)benzamide], in the assay with DOHH2 cells, the GI50 is less than 50 nM. Moreover, at BCL-2, the IC50 was less than 20 nM.
`O=C(NS(=O)(=O)c1ccc(NCC2CCOCC2)c([N+](=O)[O-])c1)c1ccc(N2CC3(CCN(C4CCCCc5ccccc54)C3)C2)cc1Oc1cnc2[nH]ccc2c1` (centres unmarked) [Compound 98, 2-((1H-pyrrolo[2,3-b]pyridin-5-yl)oxy)-N-((3-nitro-4-(((tetrahydro-2H-pyran-4-yl)methyl)amino)phenyl)sulfonyl)-4-(6-(6,7,8,9-tetrahydro-5H-benzo[7]annulen-5-yl)-2,6-diazaspiro[3.4]octan-2-yl)benzamide] showed a GI50 in the assay on DOHH2 cells of 500 to 5000 nM. Also, the IC50 at BCL-2 was in the range of 20 to 200 nM.
On the same counts, the results for `CS(=O)(=O)N1CCc2ccccc2C(N2CCN(c3ccc(C(=O)NS(=O)(=O)c4ccc(NCC5CCOCC5)c([N+](=O)[O-])c4)c(Oc4cnc5[nH]ccc5c4)c3)CC2)C1` (centres unmarked) [Compound 60, 2-((1H-pyrrolo[2,3-b]pyridin-5-yl)oxy)-4-(4-(3-(methylsulfonyl)-2,3,4,5-tetrahydro-1H-benzo[d]azepin-1-yl)piperazin-1-yl)-N-((3-nitro-4-(((tetrahydro-2H-pyran-4-yl)methyl)amino)phenyl)sulfonyl)benzamide] are greater than 5000 nM and less than 20 nM.
In the assay with DOHH2 cells, `CC(=O)Nc1cccc2c1CCCCC2N1CCN(c2ccc(C(=O)NS(=O)(=O)c3ccc(NCC4CCOCC4)c([N+](=O)[O-])c3)c(Oc3cnc4[nH]ccc4c3)c2)CC1` (centres unmarked) [Compound 59, 2-((1H-pyrrolo[2,3-b]pyridin-5-yl)oxy)-4-(4-(1-acetamido-6,7,8,9-tetrahydro-5H-benzo[7]annulen-5-yl)piperazin-1-yl)-N-((3-nitro-4-(((tetrahydro-2H-pyran-4-yl)methyl)amino)phenyl)sulfonyl)benzamide] came in with a GI50 greater than 5000 nM. Also, on BCL-2, the IC50 is less than 20 nM.

(Values after patent US20240239792A1, “MODULATORS OF BCL-2 OR BCL-2/BCL-XL AND USES THEREOF” (APPICINE THERAPEUTICS (HK) LIMITED, priority 2021, published 2024).)
